Laboratory results reported in patent publication US20040253319A1, “Pharmaceutical compositions and method for alleviating side-effects of estrogen replacement therapy” (priority 2003, published 2004).

How the values were obtained:
Format in all cases: cell-based
[1] = test system: interleukin-6 release in human smooth muscle cells; test: Interleukin-6 release in human smooth muscle cells; conditions: estrogen 100 nM; FIG. 3
From the text: Rationale: Cytokine expression and its involvement in inflammatory responses are known. It has been recently accepted that vascular and smooth muscle pathology manifested in cardiovascular diseases is one of the inflammatory responses during atherosclerosis and hypertension. Interleukin-6 is one of the key cytokines which trigger the inflammation process. Over-expression of interleukin-6 in smooth muscle cells under pathological stimuli may further amplify the inflammatory lesions. The present compositions are designed to inhibit over-expression of cytokine production in smooth muscle cells (in particular, the interleukin-6). By inhibiting the expression of interleukin-6 in smooth muscle cells, the present compositions are believed to be a remedy alleviating the side-effects of estrogen replacement therapy in post-menopausal women.
(§1) The level of cellular vascular endothelium growth factor (VEGF) production is an indicator of a stimulation of neo-vascularization processes. A rate of cytokine synthesis and secretion into medium by culture cells was measured with a commercially available immunochemical assay kit. Cultured cells were seeded in 48 well plates in 0.5 mL of medium containing 10% FBS at concentration 40,000 cell/mL. […] The level of cytokines secreted into cell culture medium was measured using ELISA kits according to manufacturer's protocol (R&D Systems).

[2] = test system: human breast cancer cells (MCF-7 cells); test: [3H]thymidine incorporation in human breast cancer cells (MCF-7); conditions: estrogen 20-500 nM; FIG. 4
[3] = test system: human smooth muscle cells; test: Smooth muscle cell invasion assay (Matrigel); conditions: estrogen 100 nM; FIG. 2
Protocol: Elevated capacity of smooth muscle cells and cancer cells to invade extracellular matrix is directly related to the initiation of the atherosclerotic plaque formation and to metastasis formation, respectively. Cultured cell invasiveness is estimated according to the number of cells penetrating through a porous plastic membrane covered with natural extracellular matrix ([…], Beckton-Dickinson). Cultured cells were grown in 75 cm^2 flasks in culture medium containing 10% fetal bovine serum (FBS) to near complete confluency of 37° C. For the last 48 hours of incubation de novo synthesized cellular DNA was metabolically labelled by adding 1 microCi/mL [^3H]thymidine. Labelled cells were detached from plastic surface by treating cell layer with 0.025% trypsin in PBS. Cultured cells were seeded on the top surface of the bottom plastic membrane of the inserts placed in the wells of a 24 well plastic plate in 0.5 mL of culture medium containing 10% fetal bovine serum (FBS) at concentration 40,000 cell/mL. Insert bottom membrane has controlled size pores of 8 micron in diameter and is covered with the layer of Matrigel. […] Number of cells penetrated to the other side of the porous membrane was assessed according to amount of lower membrane surface-bound radioactivity as measured with scintillation counter (LS 8000, Beckman-Coulter).

[4] = test system: VEGF release in human breast cancer cells (MCF-7 cells); test: VEGF release in human breast cancer cells (cytokine expression assay, ELISA); conditions: estrogen 10-100 nM; FIG. 6
From the text: Measurement of VEGF (Vascular Endothelial Growth Factor) in Cancer Cells Rationale: New vascularization formation (i.e., neo-vascularization) within a tumor bed is essential to the tumor growth. Without the new blood vessel formulation, most tumors can only grow to approximately 1 mm in diameter because the supply of nutrient and oxygen to the growing tumor cells depends on the blood vessels around the tumor. A tumor has the ability to attract new blood vessel formation (neo-vascularization) by releasing a protein known as vascular endothelial growth factor (VEGF). It is desirable to inhibit the VEGF expression in cancer cells so as to prevent neo-vascularization and inhibit tumor growth. (See, Vascular Endothelial Cell Growth Factor (VEGF), an Emerging Target for Cancer Chemotherapy, Shinkaruk, et al., Current Medicinal Chemistry and Anti-Cancer Agents, 2003, Vol. 3, pages 95-117).
as §1, with “kit.” for “kit. Cultured cells were seeded in 48 well plates in 0.5 mL of medium containing 10% FBS at concentration 40,000 cell/mL.”

[5] = test system: human smooth muscle cells; test: [3H]thymidine incorporation growth rate assay in human smooth muscle cells; conditions: estrogen 50-450 nM; FIG. 1
Protocol: Rationale: As described, the excessive growth rate of smooth muscle cells and cancer cells is directly related to accelerated atherosclerotic process and malignant tumor growth, respectively. Cultured cell growth rate is estimated according to de novo DNA synthesis assessed (i.e., [^3H]Thymidine Incorporation) according to the amount of Tritium-labeled metabolic precursor incorporated into cellular DNA during incubation period.
Human smooth muscle cells (Aortic-Cambrex Corporation, San Diego, Calif., Cat. No. CC-2571) were seeded at a cell concentration of 40,000 cells/ml (0.5 mL) per well in 24-well plates containing an appropriate growth medium (DMEM plus 10% FBS). After three hours incubation, cells were washed and fresh culture media containing tested compositions at indicated amounts were added Cells were allowed to culture for an additional 3-4 days. At the end of the culture, an aliquot of [^3H]thymidine (DuPont-NEN, Boston, Mass.) was added at a final concentration of 1 microCi/mL ([…]). After 24 hours, cells were washed in ice-cold Dulbecco's PBS, fixed in cold 10% TCA (trichloroacetic acid) for at least 0.5 hour, and incubated with 0.5 mL 0.1N sodium hydroxide for 2 hours at 37° C. Cell bound [^3H]thymidine was extracted in 0.1 N NaOH and measured in a liquid scintillation counter (LS 8000, Beckman Coulter). […]

**Q.** What does the source list for estrogen?
**A.** interleukin-6 release in human smooth muscle cells [1]: induce an increased; [3H]thymidine incorporation in human breast cancer cells (MCF-7) [2]: induce an increase; human smooth muscle cell invasion [3]: induce an increase; VEGF release in human breast cancer cells (MCF-7) [4]: induce an increased; [3H]thymidine incorporation in human smooth muscle cells [5]: induce an increase
